In patent publication US12332245B2, “Cancer biomarkers and methods of use thereof” (THE REGENTS OF THE UNIVERSITY OF CALIFORNIA, priority 2006, dated 2025):

Legend:
Type in all cases: cell-based, human
COX-2 in HMEC = experiment: exogenous induction of COX-2 by TGF-β in HMEC with modulated p16/Rb pathway (immunoblot)
Text: DNA constructs. DNA constructs used in this study are as follows: pMSCV, pMSCV-shp16 (G. Hannon and S. Lowe, Cold Spring Harbor Laboratories); pLXSN, pLXSN-HPV 16 E7 (D. Galloway, Fred Hutchinson Cancer Center); pMKO, pMKO-shRb (W. Hahn, Harvard Medical School and Dana-Farber Cancer Institute), pBabe; pBabe-cyclinD1 (O. Tetsu, UCSF Cancer Center), pBabe, pBabe-hTert (K. Collins, UC-Berkeley); LXSP and LXSP-COX-2 (D. Dixon, Vanderbilt University Medical Center). All constructs were packaged in Phoenix A cells for viral propagation. To generate stable cell lines we exposed HMEC, vHMEC or breast cell lines to viral supernatant containing 8 μg/ml Polybrene (Sigma). Cells containing stable DNA integration were selected in medium containing 4 μg/ml puromycin (pMSCV, pMKO, and LXSP constructs), 50 μg/ml G418 (LXSN constructs) or 20 μg/nil hygromycin (pBabe). Where indicated, cell lines were imaged using a standard phase contrast microscopy.
Western Blot. Total protein (15-20 μg) lysates were electrophoretically separated by SDS-PAGE and transferred onto polyvinylidene difluoride (PVDF) membranes according to standard procedures. Antisera against COX-2 (160107; Cayman Chemical, MI), Rb (554136, BD Pharmingen), p16 (16P07 Neomarkers), E2F1 (sc-251 Santa Cruz), cyclinD1 (2926, Cell Signaling), p53 (se-126, Santa Cruz), p21 (SC-6246 Santa Cruz) were used according to manufacturers protocols.
To test this hypothesis, specific members of the p16/Rb pathway were genetically modulated, and the levels of COX-2 protein expression compared to HMEC that maintain p16 expression were determined. First, basal and induced COX-2 protein levels in HMEC lacking p16 activity were compared.
To extend this analysis, we determined how other alterations within this pathway, mutations common in cancer, affect COX-2 expression. We modulated the p16/Rb pathway by three additional methods, cyclin D1 overexpression, pRb downregulation, and expression of a viral oncoprotein, HPV 16-E7 and determined the effect on basal and exogenously-induced COX-2 protein levels. To determine if cyclin D1 induces and/or sensitizes cells to COX-2 induction, we measured COX-2 protein levels in HMEC engineered to stably express cyclin D1 under the regulation of an independent, constitutively active promoter. […] The absence of E2F1 upregulation following cyclin D1 overexpression supports our finding that Rb remains active. […] To determine if inactivation of Rb is sufficient for the upregulation of COX-2, we infected HMEC with a retrovirus containing a short hairpin RNA against Rb (shRb) and determined COX-2 protein levels in cells from two independent experiments. […] Similar to results obtained with Rb genetic silencing, expression of the human papilloma virus 16-E7 (HPV 16-E7) elevated both basal and induced levels of COX-2 protein (FIG. 12D). Stable expression of HPV16-E7 was performed in cells generated from three independent reduction mammoplasties. Mammary epithelial cells expressing HPV 16-E7 show downregulation of Rb and thus inactivation of Rb and consequently upregulation of E2F1 (FIG. 12D). HPV16-E7 is well characterized for its role as a transforming oncoprotein through targeted degradation of all three members of Rb family (Rb, p107 and p130) and driving E2F-dependent transactivation.
FIG. 12A-E. Deregulation of distinct members of the p16/cyclin D1/Rb pathway differentially regulate COX-2. […]

vHMEC-ras0.5 cells [1] = experiment: TGFβ-induced EMT in vHMEC-ras0.5 cells (immunofluorescence, flow cytometry, immunoblot, MSP)
Description: Having observed that extracellular signaling induced by 10% serum can cooperate with intracellular ras activation to induce EMT in vHMEC, it was then asked whether appropriate growth factor stimulation could induce EMT in the immortalized vHMEC-ras0.5 cells which had maintained their epithelial morphology. […] Thiery et al. (2003) Curr. Opinion Cell. Biol. 15:740; and Zavadil et al. (2005) Oncogene 24:5764. vHMEC-ras0.5 cells were treated with TGFβ and the expression of molecular markers associated with EMT was assessed by immunofluorescence, flow cytometry, and immunoblot analysis. […] Coincident with the loss of epithelial marker expression was an upregulation in the expression of the mesenchymal markers, twist (FIG. 18B), N-cadherin, and fibronectin (FIG. 18C).
Unlike the EMT observed in cells exposed to 10% serum, TGFβ-induced EMT is reversible. […] As expected, the promoter of the epithelial marker 14-3-3σ remained unmethylated in all the epithelial cells, and methylated in the human mammary fibroblasts, which were used as a positive control (FIG. 18D).
FIGS. 18A-D. TGFβ induces EMT in vHMEC-ras0.5 cells without modulating methylation of E-cadherin. A. Inununofluorescence analysis. Cells were treated with 2 ng/ml TGFβ for 72 h, and immunostained for pancytokeratin, E-cadherin, β 1-integrin, and vimentin. B. Flow cytometric analysis of twist expression before (green curve) and after (purple curve) treatment with 2 ng/ml TGFβ for 72 h. C. Immunoblot analysis of the mesenchymal markers fibronectin (Fn) and N-cadherin (N-cad) was performed on cell lysates prepared from vHMEC-ras0.5 that were either untreated (−) or treated (+) with 2 ng/ml TGFβ for 72 h. Cell lystates prepared from human mammary fibroblasts were used as a positive control (C) and actin is shown as a loading control. D. MSP analysis of E-cadherin and 14-3 3σ was conducted on the PCR products of bisulfite-treated DNA isolated from vHMEC-ras0.5 untreated (−TGF) or treated (+TGF) with 2 ng/ml TGFβ for 96 h as described in FIGS. 3B and C. Bisulfite-modified DNA from MCF7 and MDA-MB-231 cells was used as unmethylated and methylated control templates, respectively for E-cadherin, while bisulfite-modified DNA from MDA-MB-231 and human mammary fibroblasts (HMF) served as unmethylated and methylated controls for 14-3-3s. Also included is a water control (no template).

vHMEC-ras0.5 cells [2] = experiment: scratch migration assay of vHMEC-ras0.5 monolayers with time-lapse microscopy; settings: TGFβ treated versus untreated cells
[3] = tested on: COX-2 in vHMEC over expressing TRF2; experiment: phospho-p38 inhibitor treatment of vHMEC over expressing TRF2; COX-2 by Q-PCR and immunoblot; settings: early passage vHMEC expressing TRF2, SB203580 24 hrs
Text: Cell Culture: Human mammary epithelial cells (vHMEC) were isolated from reduction mammoplasty (RM) of four individuals RM9, RM15, RM16 and RM18. HMEC undergo a spontaneous proliferation barrier between 8 and 12 population doublings. Variant human mammary epithelial cells (vHMEC) escape this growth barrier and have silenced p16 through promoter methylation. Cells were propagated in 2D cultures in modified MCBD 170 media (MEGM, Lonza) as previously described (Romanov et al, 2001; Hammond et al 1984). All experiments were performed on exponentially growing early passage vHMEC (between 13 to 20 population doublings); RM9, 15, 16 and 18 cease to expand in cell number at population doublings 45, 60, 50 and 53, respectively. […]
(§1) Quantitative PCR: Total RNA was isolated from cells and cDNA synthesized using standard methods. cDNA was subsequently used for quantitative real-time PCR using the standard curve method. […]
(§2) Western Blotting, ELISA and Immunofluorescence: Cell pellets were lysed in T-PER buffer (Pierce). […] Activin A protein levels were measured using the Duo-Set Activin ELISA kit (R&D Systems) following the manufacturer's directions. […] Levels of activin A were determined in cells from all four donors. […] The mean fluorescent intensity of γH2AX signal (voxels) in each nucleus was determined with the Volocity 4.0.0 software package (Improvision) on Z-stacks. […]

[4] = tested on: COX-2 and phospho-p38 in vHMEC; experiment: exogenous activin A treatment of vHMEC; COX-2 and phospho-p38 by Q-PCR and immunoblot; settings: exogenous activin A 48 hrs
Text: Cell Culture: Human mammary epithelial cells (vHMEC) were isolated from reduction mammoplasty (RM) of four individuals RM9, RM15, RM16 and RM18. HMEC undergo a spontaneous proliferation barrier between 8 and 12 population doublings. Variant human mammary epithelial cells (vHMEC) escape this growth barrier and have silenced p16 through promoter methylation. Cells were propagated in 2D cultures in modified MCBD 170 media (MEGM, Lonza) as previously described (Romanov et al, 2001; Hammond et al 1984). All experiments were performed on exponentially growing early passage vHMEC (between 13 to 20 population doublings); RM9, 15, 16 and 18 cease to expand in cell number at population doublings 45, 60, 50 and 53, respectively. Activin A (Sigma) and the p38 inhibitor, SB203580, (Sigma) were added to culture media for 48 and 24 hours (respectively) prior to harvest at the doses shown in FIGS. 3 and 4. The same amount of solvent for each molecule was added to the culture media for controls.
as §1, §2
FIGS. 23A-D: Activin A is Up Regulated in vHMEC and Induces COX-2. A. Box plot showing the levels of activin A mRNA measured using Q-PCR in parental vHMEC, or vHMEC over expressing vector (pWP) or TRF2 from 4 donors. p-value was calculated using ANOVA and is shown in the inset. B, Box plot showing the levels of activin A protein measured using ELISA in parental vHMEC or vHMEC over expressing vector (pWP) or TRF2 from 4 donors. […]

[5] = 2 ng/ml TGFβ for 72 h, immunofluorescence

Molecule: TGF-β
- COX-2 protein after exogenous induction (COX-2 in HMEC; HMEC expressing HPV 16-E7, 24 h exposure to 1 ng/ml TGF-β): elevated
- COX-2 protein after exogenous induction (COX-2 in HMEC; HMEC overexpressing cyclin D1, 24 h exposure to 1 ng/ml TGF-β): failed to render cells sensitive
- COX-2 protein after exogenous induction (COX-2 in HMEC; HMEC with shRb, 24 h exposure to 1 ng/ml TGF-β): increased
- COX-2 protein after exogenous induction (COX-2 in HMEC; p16 silenced HMEC (shp16), 24 h exposure to 1 ng/ml TGF-β): COX-2 upregulation
- COX-2 protein after exogenous induction (COX-2 in HMEC; vector control HMEC (pMSCV), 24 h exposure to 1 ng/ml TGF-β): unresponsive
- expression of the mesenchymal markers twist, N-cadherin and fibronectin (vHMEC-ras0.5 cells [1]; 2 ng/ml TGFβ for 72 h, flow cytometry and immunoblot): upregulation
- E-cadherin expression (vHMEC-ras0.5 cells [1]; [5]): loss
- cytokeratin expression (vHMEC-ras0.5 cells [1]; [5]): diminution
- β1-integrin expression (vHMEC-ras0.5 cells [1]; [5]): loss
- methylation of the E-cadherin promoter (vHMEC-ras0.5 cells [1]; 2 ng/ml TGFβ for 96 h, MSP): not observed
- cell morphology (EMT) (vHMEC-ras0.5 cells [1]; 2 ng/ml TGFβ, began within 48 h, clearly manifested by 72 h): morphological change
- migration into the denuded area (vHMEC-ras0.5 cells [2]): increase in directed migration

Molecule: C[S+]([O-])c1ccc(-c2nc(-c3ccncc3)c(-c3ccc(F)cc3)[nH]2)cc1 (centres unmarked) [SB203580]
- COX-2 mRNA ([3]; Q-PCR, ANOVA p=0.002): marked decrease
- COX-2 protein levels ([3]; immunoblot): marked decrease

B1: activin A: a member of the TGF-β superfamily; a homodimer of the activin βA subunits (protein, UniProt P08476 311-426, looked up)
Inhibin beta A chain: GLECDGKVNICCKKQFFVSFKDIGWNDWIIAPSGYHANYCEGECPSHIAGTSGSSLSFHSTVINHYRMRGHSPFANLKSCCVPTKLRPMSMLYYDDGQNIIKKDIQNMIVEECGCS
modifications: Inhibin beta A chain
- increase in COX-2 mRNA ([4]; vHMEC from two donors, Q-PCR, ANOVA p=0.001): approximately two-fold
- increase in COX-2 protein ([4]; vHMEC from two donors, immunoblot): approximately two-fold
- levels of phospho-p38 ([4]; vHMEC, immunoblot): increase
